For 24 molecules, IC50 results are on record in US12473304B2, “Heterocyclic PAD4 inhibitors” (BRISTOL-MYERS SQUIBB COMPANY, priority 2020, dated 2025).

This assay deals with human PAD4 (hPAD4) (Homo sapiens (Human), UniProt Q9UM07). The assay is described as follows: RFMS Human PAD4 Functional Assay 1. Type of assay: biochemical. Conditions: RFMS assay 1; 5 nM hPAD4, 250 μM BAEE substrate, 50 μM calcium, 37° C. An outline of the steps: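 Recombinant hPAD4 (5 nM) was preincubated with compound (top 50 μM, 0.5% DMSO) for 30 min at 37 °C, then reacted with 250 μM BAEE for 90 min at 37 °C in pH 7.5 HEPES buffer with 50 μM calcium and 5 μM TPEN. Product was derivatized with phenyl glyoxal and quantified by RapidFire MS.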
Sequence of human PAD4 (hPAD4) (Q9UM07 whole entry): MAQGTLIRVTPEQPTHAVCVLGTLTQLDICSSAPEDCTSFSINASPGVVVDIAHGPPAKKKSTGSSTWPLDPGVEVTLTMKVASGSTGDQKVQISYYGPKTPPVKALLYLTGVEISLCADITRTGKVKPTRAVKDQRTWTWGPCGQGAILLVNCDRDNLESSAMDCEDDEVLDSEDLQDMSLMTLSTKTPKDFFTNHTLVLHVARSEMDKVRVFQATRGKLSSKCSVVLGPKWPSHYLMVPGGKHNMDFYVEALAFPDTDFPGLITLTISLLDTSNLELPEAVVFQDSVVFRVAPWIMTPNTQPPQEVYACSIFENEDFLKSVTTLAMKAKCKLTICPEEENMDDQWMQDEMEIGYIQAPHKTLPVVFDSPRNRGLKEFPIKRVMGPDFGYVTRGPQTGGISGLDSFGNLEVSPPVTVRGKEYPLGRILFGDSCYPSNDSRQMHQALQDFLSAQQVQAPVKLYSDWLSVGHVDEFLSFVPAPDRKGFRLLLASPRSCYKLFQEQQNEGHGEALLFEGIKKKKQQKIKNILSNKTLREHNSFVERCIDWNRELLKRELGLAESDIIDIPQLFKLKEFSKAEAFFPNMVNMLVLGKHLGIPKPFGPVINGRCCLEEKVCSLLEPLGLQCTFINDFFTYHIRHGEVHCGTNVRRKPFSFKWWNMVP

One may read the IC50 as the concentration at which inhibition is half-maximal.

As to `Cc1c(-c2cc3ccc(-c4cccc(O)c4F)nc3n2CC2CC2)nn2cc(C(=O)N3CC4CCC3[C@@H]4N)cnc12` (stereo partly drawn) [Example 109, ((7R)-7-Amino-2-azabicyclo[2.2.1]heptan-2-yl)(2-(1-(cyclopropylmethyl)-6-(2-fluoro-3-hydroxyphenyl)-1H-pyrrolo[2,3-b]pyridin-2-yl)-3-methylpyrazolo[1,5-a]pyrimidin-6-yl)methanone], the IC50 was found to be 292 nM. Consider `Cc1c(-c2cc3cccc(C4CCN(C(=O)COC(C)C)CC4)c3n2CC2CC2)nn2cc(C(=O)N3C[C@H](N)C[C@@H](F)C3)ccc12` [Example 431, 1-(4-(2-(6-((3R,5R)-3-amino-5-fluoropiperidine-1-carbonyl)-3-methylpyrazolo[1,5-a]pyridin-2-yl)-1-(cyclopropylmethyl)-1H-indol-7-yl)piperidin-1-yl)-2-isopropoxyethan-1-one], for which the half-inhibitory concentration (IC50) was found to be 130 nM. For the molecule `COc1cc(C(=O)N2CC3CCC2[C@@H]3N)cc2oc(-c3cc4ccc(C(C)(C)O)nc4n3CC3CC3)c(C)c12` (stereo partly drawn) [Example 203, ((7R)-7-Amino-2-azabicyclo[2.2.1]heptan-2-yl)(2-(1-(cyclopropylmethyl)-6-(2-hydroxypropan-2-yl)-1H-pyrrolo[2,3-b]pyridin-2-yl)-4-methoxy-3-methylbenzofuran-6-yl)methanone], the IC50 came out at 12 nM. For `COc1cc(C(=O)N2C[C@H](N)C[C@@H](F)C2)cn2nc(-c3cc4ccnc(OCC5CNC(=O)C5)c4n3CC3CC3)c(C)c12` (single isomer, unassigned; isomer 2) [Example 602] the value was 30 nM.

In the case of `COc1cc(C(=O)N2C[C@H](N)C[C@@H](F)C2)cn2nc(-c3cc4cccc(OCC5CC(=O)N(C)C5)c4n3CC3CC3)c(C)c12` (single isomer, unassigned) [Example 553], the IC50 was 90 nM. For `Cc1c(-c2cc3cccc(OCC4CNC(=O)C4)c3n2CC2CC2)nn2cc(C(=O)N3CCC[C@@H](N)C3)ccc12` (single isomer, unassigned) [Example 589], the IC50 turned out to be 60 nM. Regarding `COc1cc(C(=O)N2C[C@H](N)C[C@@H](F)C2)cn2nc(-c3cc4ccc(-c5ccc(CNS(C)(=O)=O)cc5)cc4n3CC3CC3)c(C)c12` [Example 224, N-{[4-(2-{6-[(3R,5R)-3-Amino-5-fluoropiperidine-1-carbonyl]-4-methoxy-3-methylpyrazolo[1,5-a]pyridin-2-yl}-1-(cyclopropylmethyl)-1H-indol-6-yl)phenyl]methyl}methanesulfonamide], the IC50 turned out to be 1070 nM. On to `CO[C@@H](C)C(=O)N1CCC(c2cccc3cc(-c4nn5cc(C(=O)N6CCC[C@@H](N)C6)ccc5c4C)n(CC4CC4)c23)CC1` [Example 454, (S)-1-(4-(2-(6-((R)-3-aminopiperidine-1-carbonyl)-3-methylpyrazolo[1,5-a]pyridin-2-yl)-1-(cyclopropylmethyl)-1H-indol-7-yl)piperidin-1-yl)-2-methoxypropan-1-one], for which the IC50 is 550 nM. As to `Cc1c(-c2cc3ccc(-c4ccn5c(C)nnc5c4)cc3n2CC2CC2)nn2cc(C(=O)N3C[C@H](N)C[C@@H](F)C3)ccc12` [Example 379, (3R,5R)-1-{2-[1-(Cyclopropylmethyl)-6-{3-methyl-[1,2,4]triazolo[4,3-a]pyridin-7-yl}-1H-indol-2-yl]-3-methylpyrazolo[1,5-a]pyridine-6-carbonyl}-5-fluoropiperidin-3-amine], the IC50 is 160 nM. On to `Cc1c(-c2cc3ccc(N4CCOCC4)nc3n2CC2CC2)nn2cc(C(=O)N3CC4CCC3[C@@H]4N)ccc12` (stereo partly drawn) [Example 318, (7R)-2-{2-[1-(Cyclopropylmethyl)-6-(morpholin-4-yl)-1H-pyrrolo[2,3-b]pyridin-2-yl]-3-methylpyrazolo[1,5-a]pyridine-6-carbonyl}-2-azabicyclo[2.2.1]heptan-7-amine], for which the IC50 turned out to be 310 nM. Take `COc1cc(C(=O)N2C[C@H](N)C[C@@H](F)C2)cn2nc(-c3cc4ccc(N5CCC(N(C)S(C)(=O)=O)CC5)cc4n3CC3CC3)c(C)c12` [Example 246, N-[1-(2-{6-[(3R,5R)-3-Amino-5-fluoropiperidine-1-carbonyl]-4-methoxy-3-methylpyrazolo[1,5-a]pyridin-2-yl}-1-(cyclopropylmethyl)-1H-indol-6-yl)piperidin-4-yl]-N-methylmethanesulfonamide]: the IC50 amounted to 130 nM.

For the molecule `COc1cc(C(=O)N2C[C@H](N)C[C@@H](F)C2)cn2nc(-c3cc4cccc(C5CCN(C(=O)C6CC(O)(C(F)(F)F)C6)CC5)c4n3CC3CC3)c(C)c12` (mixture of isomers) [Example 399, ((3R,5R)-3-Amino-5-fluoropiperidin-1-yl)(2-(1-(cyclopropylmethyl)-7-(1-(3-hydroxy-3-(trifluoromethyl)cyclobutane-1-carbonyl)piperidin-4-yl)-1H-indol-2-yl)-4-methoxy-3-methylpyrazolo[1,5-a]pyridin-6-yl)methanone], the IC50 came out at 50 nM. As to `COc1cc(C(=O)N2C[C@H](N)C[C@@H](F)C2)cn2nc(-c3cc4cccc(C5CCN(C(=O)C6CC(O)C6)CC5)c4n3CC3CC3)c(C)c12` (single isomer, unassigned) [Example 393], the IC50 came to 250 nM.

Regarding `COc1cc(C(=O)N2C[C@H](N)C[C@@H](F)C2)cn2nc(-c3cc4cccc(C5CN(C(=O)[C@H](C)OC)C5)c4n3CC3CC3)c(C)c12` [Example 524, (S)-1-(3-(2-(6-((3R,5R)-3-Amino-5-fluoropiperidine-1-carbonyl)-4-methoxy-3-methylpyrazolo[1,5-a]pyridin-2-yl)-1-(cyclopropylmethyl)-1H-indol-7-yl)azetidin-1-yl)-2-methoxypropan-1-one], the IC50 is 280 nM.

With `Cc1ccc2cc(-c3nn4cc(C(=O)N5CC6CCC5[C@@H]6N)cc(F)c4c3C)n(CC3CC3)c2n1` (stereo partly drawn) [Example 40, 3((7R)-7-Amino-2-azabicyclo[2.2.1]heptan-2-yl)(2-(1-(cyclopropylmethyl)-6-methyl-1H-pyrrolo[2,3-b]pyridin-2-yl)-4-fluoro-3-methylpyrazolo[1,5-a]pyridin-6-yl)methanone], the IC50 was 25 nM. For `Cc1c(-c2cc3cccc(OC[C@@H]4CCC(=O)N4)c3n2CC2CC2)nn2cc(C(=O)N3C[C@H](N)C[C@@H](F)C3)cc(F)c12` [Example 568, (S)-5-(((2-(6-((3R,5R)-3-Amino-5-fluoropiperidine-1-carbonyl)-4-fluoro-3-methylpyrazolo[1,5-a]pyridin-2-yl)-1-(cyclopropylmethyl)-1H-indol-7-yl)oxy)methyl)pyrrolidin-2-one] the value was 60 nM; for `COC(=O)N1CCC(c2cccc3cc(-c4nn5cc(C(=O)N6C[C@H](N)C[C@@H](F)C6)ccc5c4C)n(CC4CC4)c23)CC1` [Example 469, Methyl 4-(2-(6-((3R,5R)-3-amino-5-fluoropiperidine-1-carbonyl)-3-methylpyrazolo[1,5-a]pyridin-2-yl)-1-(cyclopropylmethyl)-1H-indol-7-yl)piperidine-1-carboxylate], 180 nM; for `COC1CCN(c2ccc3cc(-c4nn5cc(C(=O)N6CC7CCC6[C@@H]7N)ccc5c4C)n(CC4CC4)c3n2)CC1` (stereo partly drawn) [Example 76, ((7R)-7-Amino-2-azabicyclo[2.2.1]heptan-2-yl)(2-(1-(cyclopropylmethyl)-6-(4-methoxypiperidin-1-yl)-1H-pyrrolo[2,3-b]pyridin-2-yl)-3-methylpyrazolo[1,5-a]pyridin-6-yl)methanone], 96 nM.

With `COc1cc(-c2ccc3cc(-c4nn5cc(C(=O)N6CC7CCC6[C@@H]7N)cc(F)c5c4C)n(CC4CC4)c3n2)c(F)cn1` (stereo partly drawn) [Example 45, ((7R)-7-Amino-2-azabicyclo[2.2.1]heptan-2-yl)(2-(1-(cyclopropylmethyl)-6-(5-fluoro-2-methoxypyridin-4-yl)-1H-pyrrolo[2,3-b]pyridin-2-yl)-4-fluoro-3-methylpyrazolo[1,5-a]pyridin-6-yl)methanone], the IC50 was 101 nM. Consider `COc1cc(C(=O)N2CC3CCC2[C@@H]3N)cn2nc(-c3cc4ccc(-c5cccc(O)c5F)nc4n3CC3CC3)c(C)c12` (stereo partly drawn) [Example 9, ((7R)-7-Amino-2-azabicyclo[2.2.1]heptan-2-yl)(2-(1-(cyclopropylmethyl)-6-(2-fluoro-3-hydroxyphenyl)-1H-pyrrolo[2,3-b]pyridin-2-yl)-4-methoxy-3-methylpyrazolo[1,5-a]pyridin-6-yl)methanone], for which the IC50 was found to be 120 nM.

As for `COC(C)(C)C(=O)N1CC(c2cccc3cc(-c4nn5cc(C(=O)N6CCC[C@@H](N)C6)ccc5c4C)n(CC4CC4)c23)C1` [Example 536, (R)-1-(3-(2-(6-(3-Aminopiperidine-1-carbonyl)-3-methylpyrazolo[1,5-a]pyridin-2-yl)-1-(cyclopropylmethyl)-1H-indol-7-yl)azetidin-1-yl)-2-methoxy-2-methylpropan-1-one], the IC50 was 2520 nM.

With `COc1cc(C(=O)N2CCC[C@@H](N)C2)cn2nc(-c3cc4cccc(C5CCN(C(=O)C6CC(O)(C(F)(F)F)C6)CC5)c4n3CC3CC3)c(C)c12` (mixture of isomers) [Example 398, (R)-(3-Aminopiperidin-1-yl)(2-(1-(cyclopropylmethyl)-7-(1-(3-hydroxy-3-(trifluoromethyl)cyclobutane-1-carbonyl)piperidin-4-yl)-1H-indol-2-yl)-4-methoxy-3-methylpyrazolo[1,5-a]pyridin-6-yl)methanone], the IC50 worked out at 40 nM. With `COc1cc(C(=O)N2C[C@H](N)C[C@@H](F)C2)cn2nc(-c3cc4cccc(C5CCN(C(=O)C6CCCO6)CC5)c4n3CC3CC3)c(C)c12` (single isomer, unassigned) [Example 394] the figure was 10 nM; with `COc1cc(C(=O)N2CCC[C@@H](N)C2)cn2nc(-c3cc4ccnc(OCCn5cncn5)c4n3CC3CC3)c(C)c12` [Example 593, (R)-(2-(7-(2-(1H-1,2,4-Triazol-1-yl)ethoxy)-1-(cyclopropylmethyl)-1H-pyrrolo[2,3-c]pyridin-2-yl)-4-methoxy-3-methylpyrazolo[1,5-a]pyridin-6-yl)(3-aminopiperidin-1-yl)methanone], 110 nM.
